# According to publication PMC9414972, “α-Glucosidase and α-Amylase Inhibitory Potentials of Quinoline–1,3,4-oxadiazole Conjugates Bearing 1,2,3-Triazole with Antioxidant Activity, Kinetic Studies, and Computational Validation” (Pharmaceuticals, 2022):
# Where two headings read alike, the source gives them in different places.
# What was measured:
# [1] = target: T1, porcine pancreatic amylase (Sus scrofa, UniProt P00690); experiment: α-Amylase inhibitory activity (starch/DNS); type: biochemical
# T1 construct: purchased Merck
# T1 sequence (P00690 16-511): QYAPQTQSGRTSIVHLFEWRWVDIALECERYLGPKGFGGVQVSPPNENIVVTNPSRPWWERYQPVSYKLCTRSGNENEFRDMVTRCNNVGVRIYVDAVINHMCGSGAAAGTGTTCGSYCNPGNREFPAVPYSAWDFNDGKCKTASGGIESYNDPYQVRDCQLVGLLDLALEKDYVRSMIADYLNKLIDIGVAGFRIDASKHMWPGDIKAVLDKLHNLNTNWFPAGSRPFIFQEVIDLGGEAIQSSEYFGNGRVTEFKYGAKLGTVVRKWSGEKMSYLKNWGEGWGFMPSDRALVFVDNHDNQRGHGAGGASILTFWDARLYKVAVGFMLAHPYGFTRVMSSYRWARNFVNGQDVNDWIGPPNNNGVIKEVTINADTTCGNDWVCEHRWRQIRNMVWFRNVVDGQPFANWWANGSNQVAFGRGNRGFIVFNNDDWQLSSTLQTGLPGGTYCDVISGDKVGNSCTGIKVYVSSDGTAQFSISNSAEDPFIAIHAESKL
# Method: α-Amylase inhibitory activity was determined according to Ibitoye et al. with slight modifications. […] The reaction in the mixture was terminated with a 1 mL dinitrosalicylate reagent before boiling for 10 min. The cooled mixture was diluted with 5 mL distilled water, and the absorbance was read at 540 nm. The inhibitory activity was calculated using the formula below: % Inhibition=1−Absorbance of compound/Absorbance of control×100
# [2] = Nitric oxide (NO) scavenging activity
# Method: The screening of the present compound series for NO radical scavenging activity (Table 2) identified excellent NO scavengers.
# The antioxidant capacity of the compounds to scavenge nitric oxide radicals was determined using a modified version of the protocol by Kurian et al.. Briefly, 250 μL of sodium nitroprusside (10 mM) prepared in sodium phosphate buffer (pH 7.4) was added to 500 μL of the compound solution (62.5–500 μM) or distilled water (control). The resulting solution was incubated at 37 °C for 2 h. Then, 250 μL of Griess reagent was added to the reaction mixture before the absorbance was measured at 546 nm. The nitric oxide scavenging activity of the compounds was calculated with the formula: Nitric oxide scavenging (%)=1−Absorbance of compound/Absorbance of control×100
# α-glucosidase = target: T2, α-glucosidase (Saccharomyces cerevisiae, UniProt P38158); experiment: biochemical
# T2 construct: purchased Merck
# T2 sequence (P38158 whole entry): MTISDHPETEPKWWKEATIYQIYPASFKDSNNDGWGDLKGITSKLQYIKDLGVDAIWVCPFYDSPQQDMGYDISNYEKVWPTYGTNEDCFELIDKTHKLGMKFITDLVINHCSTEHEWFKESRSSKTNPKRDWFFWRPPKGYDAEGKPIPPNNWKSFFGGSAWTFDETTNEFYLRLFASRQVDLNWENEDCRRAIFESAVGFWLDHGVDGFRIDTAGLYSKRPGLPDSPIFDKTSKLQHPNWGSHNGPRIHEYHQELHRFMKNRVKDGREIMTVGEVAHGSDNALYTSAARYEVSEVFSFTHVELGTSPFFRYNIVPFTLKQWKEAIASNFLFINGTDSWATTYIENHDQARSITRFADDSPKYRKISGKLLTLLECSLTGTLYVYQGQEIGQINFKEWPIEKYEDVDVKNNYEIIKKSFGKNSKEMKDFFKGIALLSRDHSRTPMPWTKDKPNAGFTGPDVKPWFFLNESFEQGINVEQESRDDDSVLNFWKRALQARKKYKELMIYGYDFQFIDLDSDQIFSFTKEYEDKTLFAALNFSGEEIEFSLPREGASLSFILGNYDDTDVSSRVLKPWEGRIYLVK
# Method: The α-glucosidase inhibitory activity was evaluated using a previous method with slight modifications.
# [3] = DPPH radical scavenging activity
# Method: The DPPH assay is used conventionally to quantify a compound’s ability to trap free radicals.
# The compounds were evaluated for their ability to scavenge stable DPPH radicals, using a modification of the method by Turkoglu et al..
# [4] = Ferric reducing antioxidant power (FRAP)
# Method: FRAP is a ferric (Fe^3+) to ferrous (Fe^2+) ions reduction assay that measures a compound’s electron-donating capacity, i.e., the antioxidant’s reducing power.
# The mixture was incubated at 50 °C for 20 min, followed by acidification with 100 μL trichloroacetic acid (10%). After centrifugation at 3500 rpm for 10 min, 200 μL of the supernatant was transferred into another test tube containing 200 μL of distilled water and 0.8 mL of FeCl3 (0.1%). Finally, the absorbance was read at 700 nm, and the total reductive antioxidant power was calculated thus: Ferric reducing antioxidant power (%)=Absorbance of compound/Absorbance of 500µM gallic acid×100
# [5] = porcine pancreatic amylase, starch, pH 6.9, 25 °C, read-out: IC50 α-Amylase
# [6] = nitric oxide radical scavenging, 37 °C, 2 h
# [7] = pNPG substrate, pH 6.8, 37 °C, read-out: IC50 α-Glucosidase
# [8] = DPPH radical scavenging, 30 min, 25 °C
# [9] = ferric reducing antioxidant power
Compound,"IC50 [1, 5] [µM]","IC50 [2, 6] [µM]",melting point [°C],IC50 (α-glucosidase; [7]) [µM],"IC50 [3, 8] [µM]","IC50 [4, 9] [µM]",IC50 (α-glucosidase) [µM],IC50 [1] [µM],IC50 [2] [µM],IC50 [3] [µM],IC50 [4] [µM]
"CCSc1nnc(COc2cccc3cccnc23)o1 [4a, 2-(Ethylthio)-5-[(quinolin-8-yloxy)methyl]-1,3,4-oxadiazole]",> 500,2.67,80.7 to 83.1,41.6,70.9,> 500,,,,,
"CCCCSc1nnc(COc2cccc3cccnc23)o1 [4c, 2-(Butylthio)-5-[(quinolin-8-yloxy)methyl]-1,3,4-oxadiazole]",> 500,> 500,88.3 to 93.5,41.4,79,> 500,,,,,
"CCCCCSc1nnc(COc2cccc3cccnc23)o1 [4d, 2-(Pentylthio)-5-[(quinolin-8-yloxy)methyl]-1,3,4-oxadiazole]",> 500,457,84.6 to 90.1,46.7,82.9,> 500,,,,,
"CCCCCCSc1nnc(COc2cccc3cccnc23)o1 [4e, 2-(Hexylthio)-5-[(quinolin-8-yloxy)methyl]-1,3,4-oxadiazole]",210,> 500,,48.1,75.7,> 500,,,,,
"C=CCSc1nnc(COc2cccc3cccnc23)o1 [4f, 2-(Allylthio)-5-[(quinolin-8-yloxy)methyl]-1,3,4-oxadiazole]",> 500,> 500,,34.5,72.1,> 500,,,,,
"CC(C)=CCSc1nnc(COc2cccc3cccnc23)o1 [4g, 2-[(3-Methylbut-2-en-1-yl)thio]-5-[(quinolin-8-yloxy)methyl]-1,3,4-oxadiazole]",> 500,> 500,,34.1,86.4,> 500,,,,,
"BrCCSc1nnc(COc2cccc3cccnc23)o1 [4h, 2-[(2-Bromoethyl)thio]-5-[(quinolin-8-yloxy)methyl]-1,3,4-oxadiazole]",,> 500,,,75.4,> 500,,,,,
"Brc1ccc(CSc2nnc(COc3cccc4cccnc34)o2)cc1 [4m, 2-[(4-Bromobenzyl)thio]-5-[(quinolin-8-yloxy)methyl]-1,3,4-oxadiazole]",> 500,> 500,120.9 to 124.1,,85.2,> 500,28.3,,,,
"O=[N+]([O-])c1ccc(CSc2nnc(COc3cccc4cccnc34)o2)cc1 [4n, 2-[(4-Nitrobenzyl)thio]-5-[(quinolin-8-yloxy)methyl]-1,3,4-oxadiazole]",> 500,> 500,156.6 to 160.1,32.8,77.2,> 500,,,,,
"Fc1cccc(CSc2nnc(COc3cccc4cccnc34)o2)c1 [4o, 2-[(3-Fluorobenzyl)thio]-5-[(quinolin-8-yloxy)methyl]-1,3,4-oxadiazole]",> 500,> 500,,48.8,76.9,> 500,,,,,
"Clc1cccc(CSc2nnc(COc3cccc4cccnc34)o2)c1 [4p, 2-[(3-Chlorobenzyl)thio]-5-[(quinolin-8-yloxy)methyl]-1,3,4-oxadiazole]",> 500,> 500,,29.6,68,> 500,,,,,
"Brc1cccc(CSc2nnc(COc3cccc4cccnc34)o2)c1 [4q, 2-[(3-Bromobenzyl)thio]-5-[(quinolin-8-yloxy)methyl]-1,3,4-oxadiazole]",427,> 500,,29.6,78.6,> 500,,,,,
"Fc1ccc(CSc2nnc(COc3cccc4cccnc34)o2)c(F)c1 [4r, 2-[(2,4-Difluorobenzyl)thio]-5-[(quinolin-8-yloxy)methyl]-1,3,4-oxadiazole]",> 500,> 500,98.7 to 105.2,28.2,64.5,> 500,,,,,
"Fc1ccc(CSc2nnc(COc3cccc4cccnc34)o2)cc1F [4s, 2-[(3,4-Difluorobenzyl)thio]-5-[(quinolin-8-yloxy)methyl]-1,3,4-oxadiazole]",> 500,> 500,98.8 to 101.2,35.4,87.2,> 500,,,,,
"Clc1ccc(CSc2nnc(COc3cccc4cccnc34)o2)c(Cl)c1 [4t, 2-[(2,4-Dichlorobenzyl)thio]-5-[(quinolin-8-yloxy)methyl]-1,3,4-oxadiazole]",> 500,> 500,116.7 to 119.7,27.7,94,> 500,,,,,
"Oc1cccc2cccnc12 [8-HQ, 8-hydroxyquinoline, reference compound]",,,,,,,29.3,> 500,184,51.8,> 500
CCCCCn1cc(CSc2nnc(COc3cccc4cccnc34)o2)nn1 [12a],> 500,> 500,90 to 94,35.2,90,> 500,,,,,
"CCCCCCn1cc(CSc2nnc(COc3cccc4cccnc34)o2)nn1 [12b, 2-{[(1-Hexyl-1H-1,2,3-triazol-4-yl)methyl]thio}-5-[(quinolin-8-yloxy)methyl]-1,3,4-oxadiazole]",> 500,> 500,,36.7,80,> 500,,,,,
"c1ccc(Cn2cc(CSc3nnc(COc4cccc5cccnc45)o3)nn2)cc1 [12c, 2-{[(1-Benzyl-1H-1,2,3-triazol-4-yl)methyl]thio}-5-[(quinolin-8-yloxy)methyl]-1,3,4-oxadiazole]",> 500,> 500,68 to 71,46.9,80.2,> 500,,,,,
"Clc1ccc(Cn2cc(CSc3nnc(COc4cccc5cccnc45)o3)nn2)cc1 [12d, 2-{[(1-(4-Chlorobenzyl)-1H-1,2,3-triazol-4-yl)methyl]thio}-5-[(quinolin-8-yloxy)methyl]-1,3,4-oxadiazole]",> 500,> 500,92 to 96,38.1,80.4,> 500,,,,,
"Fc1ccc(Cn2cc(CSc3nnc(COc4cccc5cccnc45)o3)nn2)cc1F [12j, 2-{[(1-(3,4-Difluorobenzyl)-1H-1,2,3-triazol-4-yl)methyl]thio}-5-[(quinolin-8-yloxy)methyl]-1,3,4-oxadiazole]",> 500,> 500,,59,102,> 500,,,,,
"O=C1O[C@H]([C@@H](O)CO)C(O)=C1O [Ascorbic acid, reference compound]",,,,,,103,,,,,
"O=C(O)c1cc(O)c(O)c(O)c1 [Gallic acid, reference compound]",,729,,,26.6,17.9,,,,,
"Sc1nnc(COc2cccc3cccnc23)o1 [compound 3, 5-[(Quinolin-8-yloxy)methyl]-1,3,4-oxadiazole-2-thiol]",> 500,464,,34.7,25.2,> 500,,,,,
